Data taken from US20220331309A1, “PHARMACEUTICAL COMPOSITION FOR TREATING INSOMNIA” (priority 2019, published 2022).

What was measured:
[1] = Pharmacokinetics of lemborexant alone and in combination with fluconazole in healthy adults (Test Example 1-1); conditions: for Cmax (geometric mean): healthy adults
Experimental: A single dose of 10 mg lemborexant was administered to fourteen healthy adults (males and females, 18 to 55 years old) (single administration of lemborexant); 200 mg of fluconazole was administered one time per day (two times only on Day 11) from Day 11 to Day 26 where the single administration of the lemborexant was defined as Day 1; and a single dose of 10 mg lemborexant was administered on Day 15 (administration of lemborexant in combination with fluconazole). The concentrations of lemborexant in the plasma during the single administration of lemborexant and during the administration of lemborexant in combination with fluconazole were measured with a high performance liquid chromatograph/tandem mass spectrometry (hereinafter, referred to as “LC-MS/MS”) under the following conditions to calculate the geometric means of the Cmax and the AUC (0-inf).
(§1) HPLC (pump: LC-10ADvp or LC 20AD, Autosampler SLL 20ACHT, SHIMADZU Corporation) mass spectrometer (API5000 or API5500, AB Sciex)
(§2) A 10 μL solution of an internal standard substance (lemborexant labeled with deuterium) was added to 100 μL of a human plasma, and the resulting mixture was convened into a basic condition with 10 μL of aqueous ammonia and was subjected to liquid-liquid extraction with methyl tert-butyl ether (MTBE). After stirring (for about 10 minutes) and centrifugation (about 14000 rpm, for about 10 minutes) were performed, the upper layer was evaporated into dryness at 30° C. under a nitrogen stream, and was redissolved with 200 μL of a mixed solution (50/50, v/v) of 0.1% formic acid-containing acetonitrile/water to prepare a sample for LC-MS/MS.
(§3) The measurement was performed in an MRM mode by positive detection of an electrospray ionization (ESI) method. […] A variety of parameters for AP15500/5500 Qtrap used are shown below. Ion spray Voltage: 5500 v, Curtain Gas 40, CAD 8, Gas1 70, Gas2 70, DP100, Dwell time 250 (parameters are not limited to these)
(§4) The lemborexant concentration in the plasma was calculated using an internal standard calibration curve created through inverse regression according to the method of least squares generated from the ratio of the peak area of lemborexant to that of the internal standard substance.

[2] = Pharmacokinetics of lemborexant alone and in combination with itraconazole in healthy adults (Test Example 1-2); conditions: for Cmax (geometric mean): healthy adults
Experimental: as §1, §2, §3, §4
A single dose of 10 mg lemborexant was administered to fifteen healthy adults (males and females, 21 to 55 years old) (single administration of lemborexant); 200 mg of itraconazole was administered one time per day from Day 15 to Day 34 where the single administration of lemborexant was defined as Day 1; and a single dose of 10 mg lemborexant was administered on Day 22 (administration of lemborexant in combination with itraconazole).

[3] = Prediction of pharmacokinetics of 2.5 mg lemborexant in combination with agent moderately or strongly inhibiting CYP3A (Test Example 1-3, dose proportionality); format: in vivo, human; conditions: for AUC(0-inf) / Cmax: both sexes, human, plasma, oral; for AUC(0-inf): read-out: mean AUC (0-inf) achieved; for Cmax: read-out: mean Cmax achieved
Experimental: The results are shown in Tables 3 and 4 with the actually measured values of the single administration of 10 mg lemborexant in Sections (1-1) and (1-2) above.

[4] = Single dose administration test of lemborexant in healthy adults (Test Example 3); format: in vivo, human; conditions: for AUC(0-inf) / Cmax: human, plasma, oral
Experimental: In 64 cases of healthy adults under a feed-deprived condition, the pharmacokinetics of lemborexant administered with single doses of 1, 2.5, 5, 10, 25, 50, 100, and 200 mg thereof was examined by a randomized, double-blinded, placebo-controlled, multi-stage single administration test. In each group, lemborexant was administered to six cases, and the placebo was administered to two cases.
The transition of the mean lemborexant concentration in the plasma when single doses of 1, […], 10, 25, 50, 100, and 200 mg lemborexant were administered to the healthy adults is shown in FIG. 1.

[5] = tested on: CYP3A; conditions: FDA guidance classification; cited from earlier work
[6] = 10 mg lemborexant in combination with fluconazole
[7] = both, human, plasma, oral, 10 mg
[8] = combination with fluconazole vs single administration, 10 mg lemborexant
[9] = single administration of 10 mg lemborexant, plasma
[10] = 10 mg lemborexant in combination with itraconazole
[11] = combination with itraconazole vs single administration, 10 mg lemborexant
[12] = 2.5 mg lemborexant in combination with fluconazole
[13] = 2.5 mg lemborexant in combination with itraconazole
[14] = 2.5 mg lemborexant, lower to upper limit of 95% CI in combination with fluconazole
[15] = 2.5 mg lemborexant, lower to upper limit of 95% CI in combination with itraconazole
[16] = all administration groups, in average

SMILES: Cc1ncc(OC[C@@]2(c3cccc(F)c3)C[C@H]2C(=O)Nc2ccc(F)cn2)c(C)n1 [lemborexant, (1R,2S)-2-(((2,4-dimethylpyrimidin-5-yl)oxy)methyl)-2-(3-fluorophenyl)-N-(5-fluoropyridin-2-yl)cyclopropanecarboxamide]
- increase of mean AUC (0-inf) compared to single administration [1, 6]: 317%
- increase of mean Cmax compared to single administration [1, 6]: 62%
- Cmax (geometric mean) ([1]; 10 mg lemborexant in combination with fluconazole 200 mg once per day, plasma): 88.3 ng/mL
- AUC(0-inf) [1, 7]: 374 ng·h/mL
- AUC(0-inf) ratio of (b) to (a) [1, 8]: 4.17
- Cmax ratio of (b) to (a) [1, 8]: 1.62
- Cmax (geometric mean) [1, 9]: 54.4 ng/mL
- increase of mean AUC (0-inf) compared to single administration [2, 10]: 270%
- increase of mean Cmax compared to single administration [2, 10]: 36%
- Cmax (geometric mean) ([2]; 10 mg lemborexant in combination with itraconazole 200 mg once per day, plasma): 73.9 ng/mL
- AUC(0-inf) [2, 7]: 433 ng·h/mL
- AUC(0-inf) ratio of (d) to (c) [2, 11]: 3.70
- Cmax ratio of (d) to (c) [2, 11]: 1.36
- Cmax (geometric mean) [2, 9]: 54.3 ng/mL
- AUC(0-inf), predicted value (geometric mean) [3, 12]: 370 ng·h/mL
- Cmax, predicted value (geometric mean) [3, 12]: 22.1 ng/mL
- predicted mean AUC (0-inf) lower than mean AUC (0-inf) of single 10 mg dose [3, 12]: 1.1%
- predicted mean Cmax lower than mean Cmax of single 10 mg dose [3, 12]: 59.4%
- AUC(0-inf), predicted value (geometric mean) [3, 13]: 447 ng·h/mL
- Cmax, predicted value (geometric mean) [3, 13]: 18.9 ng/mL
- predicted mean AUC (0-inf) higher than mean AUC (0-inf) of single 10 mg dose [3, 13]: 32%
- AUC(0-inf) [3, 14]: 308 to 445 ng·h/mL
- Cmax [3, 14]: 18.1 to 26.9 ng/mL
- AUC(0-inf) [3, 15]: 374 to 533 ng·h/mL
- Cmax [3, 15]: 17 to 21.1 ng/mL
- Cmax ([3]; 2.5 mg, 2.5 mg lemborexant with moderate or strong CYP3A inhibitor, lower 95% CI limit with itraconazole to upper 95% CI limit with fluconazole): 17 to 26.9 ng/mL
- AUC(0-inf) ([3]; 2.5 mg lemborexant with moderate or strong CYP3A inhibitor, lower 95% CI limit with fluconazole to upper 95% CI limit with itraconazole): 308 to 533 ng·h/mL
- exposure until 9 hours after administration as proportion of the AUC (0-inf) [4, 16]: about 45%
- exposure until 9 hours after administration as proportion of the exposure until 24 hours [4, 16]: about 75%
- increase of geometric mean Cmax relative to dose ([4]; dose of 10 mg or more): slightly lower than the dose ratio
- dose dependence of the mean AUC (0-24 h) ([4]; examined dose range 1 to 200 mg): approximately dose proportionality
- AUC(0-inf) ([4]; 5 mg, single administration of 5 mg lemborexant, healthy adults, read-out: AUC(0-inf), Geometric mean): 146 ng·h/mL
- AUC(0-inf) ([4]; 5 mg, single administration of 5 mg lemborexant, healthy adults, read-out: AUC(0-inf), Mean): 149 ng·h/mL
- AUC(0-inf) ([4]; 5 mg, single administration of 5 mg lemborexant, healthy adults, read-out: AUC(0-inf), Median): 139 ng·h/mL
- AUC(0-inf) ([4]; 5 mg, single administration of 5 mg lemborexant, healthy adults, read-out: AUC(0-inf), Minimum value): 123 ng·h/mL
- AUC(0-inf) ([4]; 5 mg, single administration of 5 mg lemborexant, healthy adults, read-out: AUC(0-inf), maximum value): 209 ng·h/mL
- Cmax ([4]; 5 mg, single administration of 5 mg lemborexant, healthy adults, read-out: Cmax, Geometric mean): 22.3 ng/mL
- Cmax ([4]; 5 mg, single administration of 5 mg lemborexant, healthy adults, read-out: Cmax, Mean): 22.7 ng/mL
- Cmax ([4]; 5 mg, single administration of 5 mg lemborexant, healthy adults, read-out: Cmax, Median): 21.9 ng/mL
- Cmax ([4]; 5 mg, single administration of 5 mg lemborexant, healthy adults, read-out: Cmax, Minimum value): 17.2 ng/mL
- Cmax ([4]; 5 mg, single administration of 5 mg lemborexant, healthy adults, read-out: Cmax, maximum value): 30 ng/mL
- AUC(0-inf) ([4]; 5 mg, single dose of 5 mg lemborexant, read-out: AUC (0-inf), lower limit value of the 95% confidence interval): 113 ng·h/mL
- AUC(0-inf) ([4]; 5 mg, single dose of 5 mg lemborexant, read-out: AUC (0-inf), upper limit value of the 95% confidence interval): 189 ng·h/mL
- Cmax ([4]; 5 mg, single dose of 5 mg lemborexant, read-out: Cmax, lower limit value of the 95% confidence interval): 18.3 ng/mL
- Cmax ([4]; 5 mg, single dose of 5 mg lemborexant, read-out: Cmax, upper limit value of the 95% confidence interval): 27.3 ng/mL
- AUC(0-inf) ([4]; 10 mg, single administration of 10 mg lemborexant, healthy adults, read-out: AUC(0-inf), Geometric mean): 299 ng·h/mL
- AUC(0-inf) ([4]; 10 mg, single administration of 10 mg lemborexant, healthy adults, read-out: AUC(0-inf), Mean): 311 ng·h/mL
- AUC(0-inf) ([4]; 10 mg, single administration of 10 mg lemborexant, healthy adults, read-out: AUC(0-inf), Median): 314 ng·h/mL
- AUC(0-inf) ([4]; 10 mg, single administration of 10 mg lemborexant, healthy adults, read-out: AUC(0-inf), Minimum value): 188 ng·h/mL
- AUC(0-inf) ([4]; 10 mg, single administration of 10 mg lemborexant, healthy adults, read-out: AUC(0-inf), maximum value): 409 ng·h/mL
- Cmax ([4]; 10 mg, single administration of 10 mg lemborexant, healthy adults, read-out: Cmax, Geometric mean): 32 ng/mL
- Cmax ([4]; 10 mg, single administration of 10 mg lemborexant, healthy adults, read-out: Cmax, Mean): 36 ng/mL
- Cmax ([4]; 10 mg, single administration of 10 mg lemborexant, healthy adults, read-out: Cmax, Median): 31.4 ng/mL
- Cmax ([4]; 10 mg, single administration of 10 mg lemborexant, healthy adults, read-out: Cmax, Minimum value): 16.9 ng/mL
- Cmax ([4]; 10 mg, single administration of 10 mg lemborexant, healthy adults, read-out: Cmax, maximum value): 62.1 ng/mL
- AUC(0-inf) ([4]; 10 mg, single dose of 10 mg lemborexant, read-out: AUC (0-inf), lower limit value of the 95% confidence interval): 216 ng·h/mL
- AUC(0-inf) ([4]; 10 mg, single dose of 10 mg lemborexant, read-out: AUC (0-inf), upper limit value of the 95% confidence interval): 414 ng·h/mL
- Cmax ([4]; 10 mg, single dose of 10 mg lemborexant, read-out: Cmax, lower limit value of the 95% confidence interval): 18.3 ng/mL
- AUC(0-inf) ([4]; dose 5 to 10 mg, lower 95% CI limit Table 9 (5 mg) to upper 95% CI limit Table 4 (10 mg), read-out: mean AUC (0-inf) achieved): 113 to 537 ng·h/mL
- Cmax ([4]; dose 5 to 10 mg, lower limit for 5 mg with weak CYP3A inhibitor to upper 95% CI limit Table 8 (10 mg), read-out: mean Cmax achieved): 16.5 to 56 ng/mL
- Cmax, upper limit value of the 95% confidence interval ([4]; single dose of 10 mg lemborexant): 56.0 ng/mL
- elimination profile of plasma concentration after administration ([4]; single doses 1 to 200 mg, healthy adults): biphasic elimination

SMILES: CCC(C)n1ncn(-c2ccc(N3CCN(c4ccc(OCC5COC(Cn6cncn6)(c6ccc(Cl)cc6Cl)O5)cc4)CC3)cc2)c1=O (stereo not shown) [Itraconazole, itraconazole]
- Classification of CYP3A inhibiting action of drug used in combination [5]: Strongly

SMILES: OC(Cn1cncn1)(Cn1cncn1)c1ccc(F)cc1F [fluconazole]
- Classification of CYP3A inhibiting action of drug used in combination [5]: moderately
